The text below walks through data of PubChem BioAssay AID1996.

Usually kinetic solubility stands for the concentration staying in solution when a stock, usually in DMSO, is diluted into the medium.

≈ marks a conversion by molar mass, not a printed value.

For the series the following is noted: buffer; pH 7.4; 200.0 µM.
In turn, `FC(F)(F)c1ccc(Cl)c(NC2=NCCCCC2)c1` had a solubility (kinetic) of over 43.6 µg/mL. On to `COc1ccccc1NC(=O)C1CC(C(C)C)OC1=O` (configuration not stated), for which the kinetic solubility came out at 38.3 µg/mL (≈ 138 µM). As to `COc1cc([N+](=O)[O-])ccc1NC(=O)Nc1cnccn1`, the solubility (kinetic) was 0.8 µg/mL (≈ 2.77 µM). On to `O=C(NNC(=O)C12CC3CC(CC(C3)C1)C2)c1cccc([N+](=O)[O-])c1`, for which the solubility (kinetic) was over 51.5 µg/mL. Consider `CC(=O)c1cn(Cc2ccccc2C#N)c2ccccc12`, for which the solubility (kinetic) worked out at 7 µg/mL (≈ 25.5 µM). In the case of `O=C(O)CN1CCN(C(c2ccccc2)c2ccccc2)CC1` it was over 46.6 µg/mL; in that of `O=C(CN1CCc2ccccc2C1)Nc1ccc(OC(F)(F)F)cc1`, 0.9 µg/mL (≈ 2.57 µM); in that of `COc1ccc(Nc2nc(NCc3ccco3)nc(N)c2[N+](=O)[O-])cc1`, 0.2 µg/mL (≈ 0.561 µM). Then `CC(C)(CCC(=S)N1CCOCC1)C1CCCCC1`, with 4.1 µg/mL (≈ 14.5 µM); and `CCOC(=O)C1(Cc2ccccc2)CCCN(C2CCCC2)C1` (configuration not stated), with over 47.3 µg/mL. In the case of `COc1ccc2c(c1)C(=O)C(=O)N2CC1COc2ccccc2O1` (configuration not stated) it was 1.7 µg/mL (≈ 5.23 µM); in that of `CCN(CC)S(=O)(=O)c1cccc(NC2=NCCCCC2)c1`, 46.8 µg/mL (≈ 145 µM); in that of `CC1(c2ccccc2)NC(=O)N(CC(=O)N(c2ccccc2)C2CCS(=O)(=O)C2)C1=O` (configuration not stated), 60.3 µg/mL (≈ 137 µM).

The compound `O=C(CCS(=O)(=O)c1ccccc1)Nc1nc(-c2ccc(F)cc2)cs1` registered a solubility (kinetic) of under 0.4 µg/mL. Regarding `CC(C)CNc1nc(N)c([N+](=O)[O-])c(NCc2ccccc2)n1`, the solubility (kinetic) was under 0.1 µg/mL. In the case of `Cc1cc(C)nc(NC(=O)c2cccs2)n1` it was over 35 µg/mL; in that of `CC(=O)NCc1ccc(-c2csc(-c3cccs3)n2)cc1`, 4.8 µg/mL (≈ 15.3 µM). The compound `CCN(CC(=O)NCCN1CCOCC1)S(=O)(=O)c1ccc(F)cc1` gave a kinetic solubility of over 56 µg/mL. Then `CCOC(=O)c1sc(SC)c2c1CCC/C2=N/OC`, with 0.7 µg/mL (≈ 2.34 µM); and `COc1ccccc1/C=C/C(=O)NCCc1ccccn1`, with 41.9 µg/mL (≈ 148 µM). In the case of `Cc1ccc(-c2csc3ncn(C(C)C(=O)O)c(=O)c23)cc1` (configuration not stated) it was over 47.2 µg/mL; in that of `COc1ccc(-c2onc3ccc(C(=O)/C=C/N(C)C)cc23)cc1`, 9.3 µg/mL (≈ 28.8 µM); in that of `COc1ccc(NS(=O)(=O)c2cc(NC(=O)COc3ccccc3)ccc2N2CCOCC2)cc1`, 3.1 µg/mL (≈ 6.23 µM). Then `N#C/C(=C\Nc1ccc2c(c1)OCCO2)C(=O)NCc1ccco1`, with 4.6 µg/mL (≈ 14.1 µM); and `Cc1cc(=O)oc2c(CN3CCCC3)c(O)ccc12`, with over 38.9 µg/mL; and `NC(=O)C1CCN(C(=O)CNC(=O)c2ccc(F)cc2)CC1`, with over 46.1 µg/mL. The compound `CCN(CC(=O)NCc1cccs1)CC(=O)Nc1ccc(C(N)=O)cc1` came in with a kinetic solubility of over 56.2 µg/mL. On to `COc1ccc(C(=O)NCCONC(=O)c2ccc(OC)cc2)cc1`, for which the kinetic solubility was determined as 50.6 µg/mL (≈ 147 µM).

Regarding `Oc1ccc2ccccc2c1C=NCc1ccccc1`, the kinetic solubility came out at 10.8 µg/mL (≈ 41.3 µM).

Regarding `CCCC1C(=O)Nc2ccccc2N1C(=O)c1cccc(C)c1` (configuration not stated), the solubility (kinetic) is over 46.3 µg/mL. Take `COc1ccc(CNC(=O)COC(=O)c2cc(C)nc3ccccc23)cc1`: the kinetic solubility was 18.3 µg/mL (≈ 50.2 µM). Then `C=CCC1Cc2c(Br)cccc2C(CC=C)N1` (configuration not stated), with 13.3 µg/mL (≈ 45.5 µM); and `CN1CCCC(OC(=O)c2ccc(Cl)cc2)C1.Cl` (configuration not stated), with 41.5 µg/mL; and `CC1CCCC(C)N1CC(O)COCc1ccccc1.Cl` (configuration not stated), with over 47.1 µg/mL. In turn, `O=c1[nH]c(N2CCOCC2)nc2ccccc12` came in with a kinetic solubility of over 34.7 µg/mL. Then `Cc1cnc(NC(=O)c2ccc3c(c2)OCCO3)s1`, with 4.4 µg/mL (≈ 15.9 µM).

`O=C1CC2(CCN(C(=O)c3cccc(F)c3)CC2)Oc2ccccc21` yielded a solubility (kinetic) of over 50.9 µg/mL. In turn, `Cc1cc(C)cc(NS(=O)(=O)c2ccc(NC(=O)c3ccccc3C(=O)O)cc2)c1` came in with a solubility (kinetic) of 54.2 µg/mL (≈ 128 µM). Then `O=[N+]([O-])c1cccc(-c2nc3ccc([N+](=O)[O-])cc3[nH]2)c1`, with 1.2 µg/mL (≈ 4.22 µM). In turn, `CCOc1ncccc1C(=O)OCC(=O)c1ccc(Br)s1` registered a kinetic solubility of over 55.5 µg/mL.

In the case of `CC(=O)Nc1ccc(NC(=O)CCOc2cc(C)ccc2C)cc1`, the solubility (kinetic) was 2 µg/mL (≈ 6.13 µM). In the case of `O=C1CC(C(=O)N2CCCc3ccccc32)CN1c1ccc(F)cc1` (configuration not stated) it was 46.5 µg/mL (≈ 137 µM); in that of `CCOC(=O)N1CCN(CC(=O)c2ccc(O)cc2O)CC1`, over 46.3 µg/mL. In the case of `CC(=O)Nc1ccc(C(=O)OCCc2ccccc2)cc1` it was 38.8 µg/mL (≈ 137 µM); in that of `Cc1ccc(NC(=O)NCc2cccnc2)cc1C`, 38.2 µg/mL (≈ 150 µM); in that of `Cc1ccc(C)c(Nc2c([N+](=O)[O-])c(=O)oc3ccccc23)c1`, 2.4 µg/mL (≈ 7.73 µM). Then `CN(C)c1c(N)c(=O)oc2ccccc12`, with 27.3 µg/mL (≈ 134 µM). With `O=C(NCCNC(=O)c1cc(Cl)ccc1Cl)c1ccco1`, the solubility (kinetic) was 46.6 µg/mL (≈ 142 µM). For the compound `O=C(Nc1ccc(F)cc1)N1CCCN(c2nccc(C(F)(F)F)n2)CC1`, the kinetic solubility was determined as 57 µg/mL (≈ 149 µM). Then `CCn1cc([N+](=O)[O-])c(C(=O)N2CCCc3ccccc32)n1`, with over 45 µg/mL; and `O=C(O)C1CCC(=O)N(C2CCCCC2)C1c1ccccc1Cl` (configuration not stated), with over 50.4 µg/mL.

`Cc1cccn2c(=O)c3cc(C(=O)NC4CCCCC4)c(=N)n(CCN4CCOCC4)c3nc12` displayed a solubility (kinetic) of 52.2 µg/mL (≈ 112 µM).
